“Also recorded” adds a separate entry of the source.
Assays:
[1] = H2O; cited from earlier work
[2] = format: physicochemical; settings: 150 μM peptide, 50 mM sodium phosphate buffer pH 7, 37°C, 2 weeks

Compound: C/C1=C2/[N-]C([C@H](CC(N)=O)[C@@]2(C)CCC(=O)NCC(C)O)[C@]2(C)N=C(/C(C)=C3N=C(/C=C4N=C1[C@@H](CCC(N)=O)C\4(C)C)[C@@H](CCC(N)=O)[C@]\3(C)CC(N)=O)[C@@H](CCC(N)=O)[C@]2(C)CC(N)=O.[C-]#N.[C-]#N.[Co] (some centres unmarked) [Cbi, dicyanocobinamide]
- Water solubility [1]: 400 mg/mL

Compound: HSQGTFTSDYSKYLDSrRAQDFVQWLMNTZ [compound 7]
- Chemical stability (% of original concentration retained in solution) [2]: highest chemical stability; also recorded: highest % concentration retained

Source: article PMC10842878 (Peptides, 2023)
